pIC50: −log10 of the molar value.
Target: T1, thrombin (Homo sapiens, UniProt P00734)
T1 construct: converts the zymogen prothrombin into the active procoagulant thrombin
Assay: Thrombin amidolytic assay (chromogenic substrate Chromozym TH)
Format: biochemical
Conditions: room temperature, pH 7.5, 5 minutes preincubation
Protocol: The compounds of the present invention are first dissolved in a buffer to give solutions containing concentrations such that assay concentrations range from 0-100 μM. In assays for thrombin, prothrombinase and factor Xa, a synthetic chromogenic substrate would be added to a solution containing a test compound and the enzyme of interest and the residual catalytic activity of that enzyme would then be determined spectrophotometrically.
The IC50 of a compound is determined from the substrate turnover. The IC50 is the concentration of test compound giving 50% inhibition of the substrate turnover.
Factor Xa and thrombin assays are performed at room temperature, in 0.02 M Tris HCl buffer, pH 7.5, containing 0.15 M NaCl. The rates of hydrolysis of the paranitroanilide substrate S-2765 (Chromogenix) for factor Xa, and the substrate Chromozym TH (Boehringer Mannheim) for thrombin following preincubation of the enzyme with the test compound for 5 minutes at room temperature are determined using a Softmax 96-well plate reader (Molecular Devices), monitored at 405 nm to measure the time dependent appearance of p-nitroanilide.

pIC50: 8.10
Structure (SMILES): N=C(N)NCCC[C@H](NC(=O)Cn1cccc(NS(=O)(=O)Cc2ccccc2)c1=O)C(=O)c1nccs1 [Example 9]
